#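 Following 48 hours of exposure in 96-well plates, responses at five concentrations were used to interpolate endpoints linearly. GI50 = concentration required for 50% inhibition of growth. TGI denotes the concentration required for complete inhibition of growth.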
# Assays:
# Assay in all cases: growth of human tumour cells (NCI), 48 h
# SNB-19 CNS = tested on: SNB-19 CNS
# SK-MEL-28 melanoma = tested on: SK-MEL-28 melanoma
# SK-MEL-5 melanoma = tested on: SK-MEL-5 melanoma
# MOLT-4 leukemia = tested on: MOLT-4 leukemia
# NCI-H23 lung = tested on: NCI-H23 lung
# SK-OV-3 ovarian = tested on: SK-OV-3 ovarian
# TK-10 renal = tested on: TK-10 renal
# EKVX NSCLC = tested on: EKVX NSCLC
# 786-0 renal = tested on: 786-0 renal
# SF-295 CNS = tested on: SF-295 CNS
Compound,GI50 (SNB-19 CNS),TGI (SNB-19 CNS),GI50 (SK-MEL-28 melanoma),TGI (SK-MEL-28 melanoma),GI50 (SK-MEL-5 melanoma),TGI (SK-MEL-5 melanoma),GI50 (MOLT-4 leukemia),TGI (MOLT-4 leukemia),GI50 (NCI-H23 lung),TGI (NCI-H23 lung),GI50 (SK-OV-3 ovarian),TGI (SK-OV-3 ovarian),GI50 (TK-10 renal),TGI (TK-10 renal),GI50 (EKVX NSCLC),TGI (EKVX NSCLC),GI50 (786-0 renal),TGI (786-0 renal),TGI (SF-295 CNS),GI50 (SF-295 CNS)
CC(=O)c1c(CN(C)c2ccccc2)n([O-])c2ccccc2[n+]1=O,17.5 µM,57.1 µM,38.7 µM,> 100 µM,16 µM,42.4 µM,23.9 µM,> 100 µM,16.4 µM,35.3 µM,31.8 µM,70 µM,45.8 µM,> 100 µM,41.2 µM,> 100 µM,55 µM,> 100 µM,–,–
O=C1NC(=O)C(=Nc2cccc3c(=O)[nH][nH]c(=O)c23)C(c2nc3ccccc3s2)C1=O (stereo not given),–,> 100 µM,–,> 100 µM,–,> 100 µM,–,> 100 µM,–,> 100 µM,–,> 100 µM,–,> 100 µM,–,> 100 µM,–,> 100 µM,> 100 µM,–
CC1(C)O[C@@H](CCl)C[C@H](C#N)O1,–,> 100 µM,–,> 100 µM,–,> 100 µM,–,> 100 µM,–,> 100 µM,–,> 100 µM,–,> 100 µM,–,> 100 µM,–,> 100 µM,> 100 µM,–
O=[N+]([O-])c1ccc(C2CC(c3ccccc3Cl)=Nc3ccccc3S2=O)cc1 (stereo not given),–,12.4 µM,–,13.8 µM,–,14.2 µM,–,7.47 µM,–,11.7 µM,–,52.9 µM,–,19.9 µM,–,35.4 µM,–,3.31 µM,15.3 µM,–
Cn1nc(-c2ccc(Cl)cc2)nc2c(=O)n(C)c(=O)nc1-2,3.03 µM,6.73 µM,1.24 µM,3.13 µM,0.321 µM,0.878 µM,1.13 µM,3.22 µM,1.18 µM,3.16 µM,4.8 µM,17.7 µM,6.09 µM,24.8 µM,1.11 µM,4.21 µM,1.43 µM,9.65 µM,1.81 µM,0.777 µM
O=C(CCC(=O)Nc1ccc(Cl)c(Cl)c1)CC(=O)c1ccc(F)cc1,–,> 100 µM,–,> 100 µM,–,> 100 µM,–,> 100 µM,–,> 100 µM,–,> 100 µM,–,–,–,> 100 µM,–,> 100 µM,> 100 µM,–
CN(C)C(=Nc1nc(=[N+](C)C)ss1)N(C)C,–,> 100 µM,–,> 100 µM,–,> 100 µM,–,> 100 µM,–,> 100 µM,–,> 100 µM,–,> 100 µM,–,> 100 µM,–,> 100 µM,> 100 µM,–
CN=C(NC(=S)N(C)C)N(C)C,–,> 100 µM,–,> 100 µM,–,> 100 µM,–,> 100 µM,–,> 100 µM,–,> 100 µM,–,> 100 µM,–,> 100 µM,–,> 100 µM,> 100 µM,–
CCCCCCCCCCCCCCCCNCCCN(C)CCCN,–,31.5 µM,–,26.6 µM,–,31.4 µM,–,94.1 µM,–,34.1 µM,–,34.6 µM,–,29.3 µM,–,42.8 µM,–,28.9 µM,33.4 µM,–
C#CC[N+](C)(CC#C)CC#C,–,> 100 µM,–,> 100 µM,–,> 100 µM,–,> 100 µM,–,> 100 µM,–,> 100 µM,–,> 100 µM,–,> 100 µM,–,> 100 µM,> 100 µM,–
CCOC(=O)c1c(C)n(Cc2ccccc2)c2c1cc(O)c1[nH]c(Cc3ccccc3)nc12,23.6 µM,> 67.9 µM,24.3 µM,> 100 µM,9.89 µM,39.1 µM,–,–,9.19 µM,> 56 µM,23.2 µM,> 100 µM,1.5 µM,54.5 µM,25.5 µM,> 79.5 µM,20.2 µM,72 µM,44.4 µM,11.3 µM
COC(=O)/C(=N/Nc1cccc(Cl)c1)C(C(=O)C(=O)Nc1cccc(Cl)c1C)c1nc2ccccc2nc1C (stereo not given),–,–,–,> 100 µM,–,> 100 µM,–,> 100 µM,–,> 100 µM,–,> 100 µM,–,> 100 µM,–,> 100 µM,–,> 100 µM,> 100 µM,–
Cc1c(CCO)c(=O)n2c([nH]c3ccccc32)c1C#N,–,91.8 µM,–,> 100 µM,–,> 100 µM,–,–,–,> 100 µM,–,> 100 µM,–,> 100 µM,–,> 100 µM,–,> 100 µM,> 100 µM,–
Cc1cn(C2C=CC(CO)O2)c(=O)[nH]c1=O (stereo not given),–,> 1000 µM,–,–,–,> 1000 µM,–,> 1000 µM,–,> 1000 µM,–,> 1000 µM,–,> 1000 µM,–,> 1000 µM,–,> 1000 µM,> 1000 µM,–
Nc1cc(O)ccc1N=Nc1ccc(-c2nc3ccccc3[nH]2)cc1,> 100 µM,> 100 µM,34.8 µM,> 100 µM,38.8 µM,> 100 µM,> 100 µM,> 100 µM,–,–,> 100 µM,> 100 µM,16.1 µM,> 100 µM,21 µM,92.1 µM,77.2 µM,> 100 µM,> 100 µM,16.8 µM
COc1ccccc1C1=C(Nc2ccccc2)C(=O)NC1=O,> 25 µM,> 25 µM,> 25 µM,> 25 µM,> 25 µM,> 25 µM,> 25 µM,> 25 µM,–,–,> 25 µM,> 25 µM,> 25 µM,> 25 µM,> 25 µM,> 25 µM,> 25 µM,> 25 µM,> 25 µM,> 25 µM
Cc1ccc(/C=C2\CN(C(=O)C(Cl)Cl)C/C(=C\c3ccc(C)cc3)C2=O)cc1,0.286 µM,1.03 µM,0.319 µM,1.19 µM,0.445 µM,1.53 µM,–,–,0.221 µM,0.478 µM,1 µM,> 100 µM,0.57 µM,6.04 µM,0.348 µM,2.31 µM,0.194 µM,0.397 µM,0.665 µM,0.223 µM
Cc1nc2c(o1)C(=Nc1ccccc1)c1ccccc1C2=O,–,23.7 µM,–,–,–,5.78 µM,–,48.3 µM,–,5.25 µM,–,28 µM,–,69.9 µM,–,27.1 µM,–,28.5 µM,30.8 µM,–

# Reference: PubChem BioAssay (NCI)
